Measured values taken from patent US10689399B2, “Substituted 3,4,5,6,8,10,14,14a-octahydro-2h-2,6-methanopyrido[1′,2′:4,5]pyrazino[2,1-b][1,3]oxazocines and methods for treating viral infections” (Gilead Sciences, Inc., priority 2012, dated 2020).

system: HIV-IIIb; test: Antiviral assay in MT4 cells; assay type: cell-based; settings: Human immunodeficiency virus 1, IIIB, MT4, 120 h, MT4 cells infected with HIV-IIIb, 5 days, CellTiter-Glo; read-out: EC50 nM in MT-4
Experimental: For the antiviral assay utilizing MT4 cells, 0.4 μL of 189X test concentration of 3-fold serially diluted compound in DMSO was added to 40 μL of cell growth medium (RPMI 1640, 10% FBS, 1% penicilline/Streptomycine, 1% L-Glutamine, 1% HEPES) in each well of 384-well assay plates (10 concentrations) in quidruplicate.
1 mL aliquots of 2×10^6 MT4 cells are pre-infected for 1 and 3 hours respectively at 37° C. with 25 μL (MT4) or of either cell growth medium (mock-infected) or a fresh 1:250 dilution of an HIV-IIIb concentrated ABI stock (0.004 m.o.i. for MT4 cells). Infected and uninfected cells are diluted in cell growth medium and 35 μL of 2000 (for MT4) cells is added to each well of the assay plates.
Assay plates were then incubated in a 37° C. incubator. After 5 days of incubation, 25 μL of 2× concentrated CellTiter-Glo™ Reagent (catalog # G7573, Promega Biosciences, Inc., Madison, Wis.) was added to each well of the assay plate. Cell lysis was carried out by incubating at room temperature for 2-3 minutes, and then chemiluminescence was read using the Envision reader (PerkinElmer).

SMILES | EC50
C[C@H]1CO[C@@H]2Cn3cc(C(=O)NC4(c5ccc(F)cc5F)CC4)c(=O)c(O)c3C(=O)N12 [Compound 37, (3S,11aR)—N-(1-(2,4-difluorophenyl)cyclopropyl)-6-hydroxy-3-methyl-5,7-dioxo-2,3,5,7,11,11a-hexahydrooxazolo[3,2-a]pyrido[1,2-d]pyrazine-8-carboxamide] | 10.2 nM
O=C(NCc1c(F)cc(F)cc1F)c1cn2c(c(O)c1=O)C(=O)N1[C@H]3CC[C@H](C3)[C@@H]1C2 [Compound 41, (1R,4S,12aR)-7-hydroxy-6,8-dioxo-N-(2,4,6-trifluorobenzyl)-1,2,3,4,6,8,12,12a-octahydro-1,4-methanodipyrido[1,2-a:1′,2′-d]pyrazine-9-carboxamide] | 2.1 nM
O=C(NCc1c(F)cc(F)cc1F)c1cn2c(c(O)c1=O)C(=O)N1[C@H]3CC[C@H](C3)O[C@@H]1C2 [Compound 42, (2R,5S,13aR)-8-hydroxy-7,9-dioxo-N-(2,4,6-trifluorobenzyl)-2,3,4,5,7,9,13,13a-octahydro-2,5-methanopyrido[1′,2′:4,5]pyrazino[2,1-b][1,3]oxazepine-10-carboxamide] | 2.5 nM
C[C@@H](NC(=O)c1cn2c(c(O)c1=O)C(=O)N1[C@H]3CC[C@H](C3)[C@@H]1C2)c1ccc(F)cc1F [Compound 43, (12aR)—N—((R)-1-(2,4-difluorophenyl)ethyl)-7-hydroxy-6,8-dioxo-1,2,3,4,6,8,12,12a-octahydro-1,4-methanodipyrido[1,2-a:1′,2′-d]pyrazine-9-carboxamide] | 6.9 nM
O=C(NCc1ccc(F)c(F)c1F)c1cn2c(c(O)c1=O)C(=O)N1[C@@H]3CC[C@@H](C3)O[C@H]1C2 [Compound 44, (13aS)-8-hydroxy-7,9-dioxo-N-(2,3,4-trifluorobenzyl)-2,3,4,5,7,9,13,13a-octahydro-2,5-methanopyrido[1′,2′:4,5]pyrazino[2,1-b][1,3]oxazepine-10-carboxamide] | 2.3 nM
O=C(NCc1c(F)cc(F)cc1F)c1cn2c(c(O)c1=O)C(=O)N1[C@@H]3CC[C@@H](C3)O[C@H]1C2 [Compound 45, (13aS)-8-hydroxy-7,9-dioxo-N-(2,4,6-trifluorobenzyl)-2,3,4,5,7,9,13,13a-octahydro-2,5-methanopyrido[1′,2′:4,5]pyrazino[2,1-b][1,3]oxazepine-10-carboxamide] | 2.4 nM
O=C(NCc1c(F)cccc1F)c1cn2c(c(O)c1=O)C(=O)N1[C@@H]3CC[C@@H](C3)O[C@H]1C2 [Compound 46, (13aS)—N-(2,6-difluorobenzyl)-8-hydroxy-7,9-dioxo-2,3,4,5,7,9,13,13a-octahydro-2,5-methanopyrido[1′,2′:4,5]pyrazino[2,1-b][1,3]oxazepine-10-carboxamide] | 2.6 nM
O=C(NCc1ncccc1C(F)(F)F)c1cn2c(c(O)c1=O)C(=O)N1[C@@H]3CC[C@@H](C3)O[C@H]1C2 [Compound 49, (2 S,5R,13aS)-8-hydroxy-7,9-dioxo-N-((3-(trifluoromethyl)pyridin-2-yl)methyl)-2,3,4,5,7,9,13,13a-octahydro-2,5-methanopyrido[1%2′: 4,5]pyrazino[2,1-b][1,3]oxazepine-10-carboxamide] | 33.3 nM
O=C(NCc1ccc(F)cc1OC1CC1)c1cn2c(c(O)c1=O)C(=O)N1[C@@H]3CC[C@@H](C3)O[C@H]1C2 [Compound 52, (2S,5R,13aS)—N-(2-cyclopropoxy-4-fluorobenzyl)-8-hydroxy-7,9-dioxo-2,3,4,5,7,9,13,13a-octahydro-2,5-methanopyrido[1%2′: 4,5]pyrazino[2,1-b][1,3]oxazepine-10-carboxamide] | 15 nM
O=C(NCc1ccc(F)cc1OC1CC1)c1cn2c(c(O)c1=O)C(=O)N1[C@H]3CC[C@H](C3)O[C@@H]1C2 [Compound 53, (2R,5S,13aR)—N-(2-cyclopropoxy-4-fluorobenzyl)-8-hydroxy-7,9-dioxo-2,3,4,5,7,9,13,13a-octahydro-2,5-methanopyrido[1%2′: 4,5]pyrazino[2,1-b][1,3]oxazepine-10-carboxamide] | 14.3 nM
O=C(N[C@@H](c1ccc(F)cc1F)C(F)(F)F)c1cn2c(c(O)c1=O)C(=O)N1C(C2)O[C@@H]2CC[C@H]1C2 (stereo partly drawn) [Compound 54, (2R,5S)—N—((S)-1-(2,4-difluorophenyl)-2,2,2-trifluoroethyl)-8-hydroxy-7,9-dioxo-2,3,4,5,7,9,13,13a-octahydro-2,5-methanopyrido[1′,2′:4,5]pyrazino[2,1-b][1,3]oxazepine-10-carboxamide] | 15.6 nM
O=C(NCc1c(F)cc(F)cc1F)c1cn2c(c(O)c1=O)C(=O)N1[C@H]3CC[C@H](C3)[C@H]1C2 [Compound 55, (1R,4S,12aS)-7-hydroxy-6,8-dioxo-N-(2,4,6-trifluorobenzyl)-1,2,3,4,6,8,12,12a-octahydro-1,4-methanodipyrido[1,2-a:1′,2′-d]pyrazine-9-carboxamide] | 1.5 nM
O=C(NCc1c(F)cc(F)cc1F)c1cn2c(c(O)c1=O)C(=O)N1[C@@H]3C[C@H]([C@@H]1C2)C(F)(F)C3 [Compound 57, (1R,4R,12aR)-2,2-difluoro-7-hydroxy-6,8-dioxo-N-(2,4,6-trifluorobenzyl)-1,2,3,4,6,8,12,12a-octahydro-1,4-methanodipyrido[1,2-a:1′,2′-d]pyrazine-9-carboxamide] | 2.3 nM
O=C(NCc1ccc(F)c(Cl)c1F)c1cn2c(c(O)c1=O)C(=O)N1[C@@H]3C[C@H]([C@@H]1C2)C(F)(F)C3 [Compound 58, (1R,4R,12aR)—N-(3-chloro-2,4-difluorobenzyl)-2,2-difluoro-7-hydroxy-6,8-dioxo-1,2,3,4,6,8,12,12a-octahydro-1,4-methanodipyrido[1,2-a:1′,2′-d]pyrazine-9-carboxamide] | 1.5 nM
O=C(NCc1c(F)cc(F)cc1F)c1cn2c(c(O)c1=O)C(=O)N1[C@@H]3C[C@@H]([C@H](F)C3)[C@@H]1C2 [Compound 59, (1R,2R,4R,12aR)-2-fluoro-7-hydroxy-6,8-dioxo-N-(2,4,6-trifluorobenzyl)-1,2,3,4,6,8,12,12a-octahydro-1,4-methanodipyrido[1,2-a:1′,2′-d]pyrazine-9-carboxamide] | 3.1 nM
O=C(NCc1cccc(Cl)c1Cl)c1cn2c(c(O)c1=O)C(=O)N1[C@H]3CC[C@H](C3)[C@@H]1C2 [Compound 60, (1R,4S,12aR)—N-(2,3-dichlorobenzyl)-7-hydroxy-6,8-dioxo-1,2,3,4,6,8,12,12a-octahydro-1,4-methanodipyrido[1,2-a:1′,2′-d]pyrazine-9-carboxamide] | 2.1 nM
O=C(NCc1ccc(F)c(Cl)c1F)c1cn2c(c(O)c1=O)C(=O)N1[C@H]3CC[C@H](C3)[C@H]1C2 [Compound 61, (1R,4S,12aS)—N-(3-chloro-2,4-difluorobenzyl)-7-hydroxy-6,8-dioxo-1,2,3,4,6,8,12,12a-octahydro-1,4-methanodipyrido[1,2-a:1′,2′-d]pyrazine-9-carboxamide] | 1.8 nM
O=C(NCc1ccc(F)cc1C(F)(F)F)c1cn2c(c(O)c1=O)C(=O)N1[C@H]3CC[C@H](C3)O[C@@H]1C2 [Compound 62, (2R,5S,13aR)—N-(4-fluoro-2-(trifluoromethyl)benzyl)-8-hydroxy-7,9-dioxo-2,3,4,5,7,9,13,13a-octahydro-2,5-methanopyrido[1′,2′:4,5]pyrazino[2,1-b][1,3]oxazepine-10-carboxamide] | 9.2 nM
O=C(NCc1cc(F)c(F)cc1F)c1cn2c(c(O)c1=O)C(=O)N1[C@H]3CC[C@H](C3)O[C@@H]1C2 [Compound 64, (2R,5S,13aR)-8-hydroxy-7,9-dioxo-N-(2,4,5-trifluorobenzyl)-2,3,4,5,7,9,13,13a-octahydro-2,5-methanopyrido[1′,2′:4,5]pyrazino[2,1-b][1,3]oxazepine-10-carboxamide] | 3.5 nM

same assay, conditions: Human immunodeficiency virus 1, IIIB, MT4, 120 h, read-out: EC50 nM in MT-4, MT4 cells infected with HIV-IIIb, 5 days, CellTiter-Glo

SMILES | EC50
C[C@H]1C[C@@H]2C[C@H]1O[C@H]1Cn3cc(C(=O)NCc4ccc(F)cc4F)c(=O)c(O)c3C(=O)N21 [Compound 39, (2R,3S,5R,13aS)—N-(2,4-difluorobenzyl)-8-hydroxy-3-methyl-7,9-dioxo-2,3,4,5,7,9,13,13a-octahydro-2,5-methanopyrido[1′,2′:4,5]pyrazino[2,1-b][1,3]oxazepine-10-carboxamide] | 3.6 nM
O=C(NCc1ccc(F)cc1F)c1cn2c(c(O)c1=O)C(=O)N1[C@H]3CC[C@H](C3)[C@@H]1C2 [Compound 47, (1R,4S,12aR)—N-(2,4-difluorobenzyl)-7-hydroxy-6,8-dioxo-1,2,3,4,6,8,12,12a-octahydro-1,4-methanodipyrido[1,2-a:1′,2′-d]pyrazine-9-carboxamide] | 1.9 nM
O=C(NCc1ccc(F)cc1Cl)c1cn2c(c(O)c1=O)C(=O)N1[C@H]3CC[C@H](C3)O[C@@H]1C2 [Compound 63, (2R,5S,13aR)—N-(2-chloro-4-fluorobenzyl)-8-hydroxy-7,9-dioxo-2,3,4,5,7,9,13,13a-octahydro-2,5-methanopyrido[1′,2′:4,5]pyrazino[2,1-b][1,3]oxazepine-10-carboxamide] | 2.5 nM
